How the values were obtained:
[1] = target: Nanoluciferase-BRD9 fusion protein (3×FLAG-NLuc-BRD9) in SYO-1 cells (Homo sapiens (Human), UniProt Q9H8M2); assay: SYO1 BRD9 NanoLuc degradation assay; format: cell-based; conditions: SYO-1 cells, 6 hours, Table 6A
Procedure, shortened: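 Stable SYO-1 line expressing 3×FLAG-NLuc-BRD9, treated with 10-point 3-fold dilutions (top 1 μM final) for 6 hours. Nanoluciferase luminescence read with Nano-Glo reagent. % inhibition relative to DMSO (high control) and 1 μM reference BRD9 degrader (low control).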

BRD9 bromodomain = BRD9 bromodomain (Homo sapiens (Human), UniProt Q9H8M2); assay: BRD9 bromodomain TR-FRET competition binding assay
Method: Procedure: His-Flag-BRD9 (P133-K239; Swiss Prot Q9H8M2; SEQ ID NO:1 mgsshhhhhhenlyfq/gdykddddkgslevlfqg/[…] […]) was cloned, expressed, purified, and then treated with TEV protease. Cleaved His tag was removed by purification. The binding of a biotinylated small molecule ligand of BRD9 was assessed via the LANCE® TR-FRET platform (PerkinElmer), and the compounds were assayed for inhibitory activity against this interaction.
Results: A mixture of biotinylated-ligand and SureLight™ Allophycocyanin-Streptavidin (APC-SA, PerkinElmer AD0201) in 50 mM HEPES (pH 7.4), 50 mM NaCl, 1 mM TCEP (pH 7), 0.01% (v/v) Tween-20, 0.01% (w/v) bovine serum albumin was added to a white 384-well PerkinElmer Proxiplate Plus plate. DMSO or 3-fold serially diluted compounds were then added to the Proxiplate followed by addition of Flag-BRD9. After a 10-minute incubation at room temperature, Eu—W1024 anti-FLAG (PerkinElmer, AD0273) was added. The final reaction mixture that contained 3.75 nM biotinylated ligand, 3 nM Flag-BRD9, 7.5 nM SureLight™ Allophycocyanin-Streptavidin, and 0.2 nM Eu—W1024 anti-FLAG was incubated at room temperature for 90 minutes.
The plates were then read on a PerkinElmer Envision plate reader to determine the ratio of emission at 665 nm over 615 nm. […]

Sequence of BRD9 bromodomain (Q9H8M2 133-239): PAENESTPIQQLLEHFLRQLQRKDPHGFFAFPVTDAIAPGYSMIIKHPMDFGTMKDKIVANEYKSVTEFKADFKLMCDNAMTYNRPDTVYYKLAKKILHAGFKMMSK
Sequence of Nanoluciferase-BRD9 fusion protein (3×FLAG-NLuc-BRD9) in SYO-1 cells (Q9H8M2 whole entry, the tested form may be a part): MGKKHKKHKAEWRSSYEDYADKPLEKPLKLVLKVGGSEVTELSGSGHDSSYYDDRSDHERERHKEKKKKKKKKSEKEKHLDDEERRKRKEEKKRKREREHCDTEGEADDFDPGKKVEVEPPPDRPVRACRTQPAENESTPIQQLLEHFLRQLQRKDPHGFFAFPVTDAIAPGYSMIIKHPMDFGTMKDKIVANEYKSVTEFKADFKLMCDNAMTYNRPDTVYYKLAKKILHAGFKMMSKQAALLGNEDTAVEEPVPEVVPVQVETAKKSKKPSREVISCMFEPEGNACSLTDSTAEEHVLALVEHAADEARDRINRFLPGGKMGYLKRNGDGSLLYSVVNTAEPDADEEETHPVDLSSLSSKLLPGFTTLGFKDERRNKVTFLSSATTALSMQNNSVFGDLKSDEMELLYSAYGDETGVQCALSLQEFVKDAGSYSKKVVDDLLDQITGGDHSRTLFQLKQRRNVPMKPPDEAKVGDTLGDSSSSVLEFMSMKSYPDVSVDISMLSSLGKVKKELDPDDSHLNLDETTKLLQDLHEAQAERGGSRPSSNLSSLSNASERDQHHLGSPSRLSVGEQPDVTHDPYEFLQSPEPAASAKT

| Compound | IC50 [1] [nM] | IC50 (BRD9 bromodomain) [nM] |
| --- | --- | --- |
| COc1cc(-c2cn(C)c(=O)c3c2CCN(C(=O)CCCCCCCCNc2cccc4c2C(=O)N(C2CCC(=O)NC2=O)C4=O)C3)cc(OC)c1CN(C)C (stereo not drawn) [Compound D19, 4-[[9-(5-[4-[(dimethylamino)methyl]-3,5-dimethoxyphenyl]-7-methyl-8-oxo-1,2,3,4,7,8-hexahydro-2,7-naphthyridin-2-yl)-9-oxononyl]amino]-2-(2,6-dioxopiperidin-3-yl)-2,3-dihydro-1H-isoindole-1,3-dione] | > 1000 | > 1000 |
| COc1cc(-c2cn(C)c(=O)c3c2CCN(C(=O)CCCCCOc2cccc4c2C(=O)N(C2CCC(=O)NC2=O)C4=O)C3)cc(OC)c1CN(C)C (stereo not drawn) [Compound D20, ([4-[7-(6-[[2-(2,6-dioxopiperidin-3-yl)-1,3-dioxo-2,3-dihydro-1H-isoindol-4-yl]oxy]hexanoyl)-2-methyl-1-oxo-1,2,5,6,7,8-hexahydro-2,7-naphthyridin-4-yl]-2,6-dimethoxyphenyl]methyl)(methyl)aminyl] | > 1000 | > 1000 |
| COc1cc(-c2cn(C)c(=O)c3c2CN(C(=O)NCCOCCOCCNc2cccc4c2C(=O)N(C2CCC(=O)NC2=O)C4=O)CC3)cc(OC)c1CN(C)C (stereo not drawn) [Compound D23, 8-[4-[(dimethylamino)methyl]-3,5-dimethoxyphenyl]-N-[2-[2-(2-[[2-(2,6-dioxopiperidin-3-yl)-1,3-dioxoisoindol-4-yl]amino]ethoxy)ethoxy]ethyl]-6-methyl-5-oxo-3,4-dihydro-1H-2,6-naphthyridine-2-carboxamide formic acid] | > 1000 | > 100 |
| CNC(=O)N1CCc2c(c(-c3cc(OC)c(CN(C)CC(=O)NCCOCCOc4cccc5c4C(=O)N(C4CCC(=O)NC4=O)C5=O)c(OC)c3)cn(C)c2=O)C1 (stereo not drawn) [Compound D24, 8-(4-(((2-((2-(2-((2-(2,6-dioxopiperidin-3-yl)-1,3-dioxoisoindolin-4-yl)oxy)ethoxy)ethyl)amino)-2-oxoethyl)(methyl)amino)methyl)-3,5-dimethoxyphenyl)-N,6-dimethyl-5-oxo-3,4,5,6-tetrahydro-2,6-naphthyridine-2 (1H)-carboxamide] | > 1000 | > 100 |
| COc1cc(-c2cn(C)c(=O)c3c2CCN(C(=O)NCCN(C)CCOCCOc2cccc4c2C(=O)N(C2CCC(=O)NC2=O)C4=O)C3)cc(OC)c1CN(C)C (stereo not drawn) [Compound D30, 5-[4-[(dimethylamino)methyl]-3,5-dimethoxyphenyl]-N-(2-[[2-(2-[[2-(2,6-dioxopiperidin-3-yl)-1,3-dioxoisoindol-4-yl]oxy]ethoxy)ethyl](methyl)amino]ethyl)-7-methyl-8-oxo-3,4-dihydro-1H-2,7-naphthyridine-2-carboxamide formic acid] | > 1000 | > 100 |
| COc1cc(-c2cn(C)c(=O)c3c2CCN(C(=O)NCCOCCNc2ccc4c(c2)C(=O)N(C2CCC(=O)NC2=O)C4=O)C3)c(OC)cc1CN(C)C (stereo not drawn) [Compound D32, 5-[4-[(dimethylamino)methyl]-2,5-dimethoxyphenyl]-N-[2-(2-[[2-(2,6-dioxopiperidin-3-yl)-1,3-dioxoisoindol-5-yl]amino]ethoxy)ethyl]-7-methyl-8-oxo-3,4-dihydro-1H-2,7-naphthyridine-2-carboxamide formic acid] | > 100 | > 100 |
| COc1cc(-c2cn(C)c(=O)c3c2CN(C(=O)N(C)C)CC3)cc(OC)c1CN(C)CCOCCN1CCN(c2ccc3c(c2)C(=O)N(C2CCC(=O)NC2=O)C3=O)CC1 (stereo not drawn) [Compound D33, 8-(4-(((2-(2-(4-(2-(2,6-dioxopiperidin-3-yl)-1,3-dioxoisoindolin-5-yl)piperazin-1-yl)ethoxy)ethyl)(methyl)amino)methyl)-3,5-dimethoxyphenyl)-N,N,6-trimethyl-5-oxo-3,4,5,6-tetrahydro-2,6-naphthyridine-2 (1H)-carboxamide formic acid] | > 1000 | > 10 |
| COc1cc(-c2cn(C)c(=O)c3c2CCN(C(=O)NCCCCCCCCCC(=O)N[C@H](C(=O)N2C[C@H](O)C[C@H]2C(=O)NCc2ccc(-c4scnc4C)cc2)C(C)(C)C)C3)cc(OC)c1CN(C)C [Compound D38, (2S,4R)-1-[(2S)-2-[10-(5-[4-[(dimethylamino)methyl]-3,5-dimethoxyphenyl]-7-methyl-8-oxo-3,4-dihydro-1H-2,7-naphthyridine-2-carbonylamino)decanamido]-3,3-dimethylbutanoyl]-4-hydroxy-N-[[4-(4-methyl-1,3-thiazol-5-yl)phenyl]methyl]pyrrolidine-2-carboxamide] | > 10 | < 10 |

Continued, values first:

| IC50 [1] [nM] | IC50 (BRD9 bromodomain) [nM] | Compound |
| --- | --- | --- |
| > 10 | > 10 | COc1cc(-c2cn(C)c(=O)c3c2CCN(C(=O)NCCCCCOc2cccc4c2C(=O)N(C2CCC(=O)NC2=O)C4=O)C3)cc(OC)c1CN(C)C (stereo not drawn) [Compound D18, 5-[4-[(dimethylamino)methyl]-3,5-dimethoxyphenyl]-N-(5-[[2-(2,6-dioxopiperidin-3-yl)-1,3-dioxoisoindol-4-yl]oxy]pentyl)-7-methyl-8-oxo-3,4-dihydro-1H-2,7-naphthyridine-2-carboxamide] |
| > 10 | > 10 | COc1cc(-c2cn(C)c(=O)c3c2CCN(C(=O)NCCOCCNc2ccc4c(c2)C(=O)N(C2CCC(=O)NC2=O)C4=O)C3)cc(OC)c1CN(C)C (stereo not drawn) [Compound D21, 5-[4-[(dimethylamino)methyl]-3,5-dimethoxyphenyl]-N-[2-(2-[[2-(2,6-dioxopiperidin-3-yl)-1,3-dioxoisoindol-5-yl]amino]ethoxy)ethyl]-7-methyl-8-oxo-3,4-dihydro-1H-2,7-naphthyridine-2-carboxamide formic acid] |
| < 10 | < 10 | COc1cc(-c2cn(C)c(=O)c3c2CCN(C(=O)NCCCCCOc2ccc4c(c2)C(=O)N(C2CCC(=O)NC2=O)C4=O)C3)cc(OC)c1CN(C)C (stereo not drawn) [Compound D22, formic acid] |
| < 10 | < 10 | CNC(=O)N1CCc2c(-c3cc(OC)c(CN4CCC(CCN5CCN(c6ccc7c(c6)C(=O)N(C6CCC(=O)NC6=O)C7=O)CC5)CC4)c(OC)c3)cn(C)c(=O)c2C1 (stereo not drawn) [Compound D28, 5-(4-[[4-(2-[4-[2-(2,6-dioxopiperidin-3-yl)-1,3-dioxoisoindol-5-yl]piperazin-1-yl]ethyl)piperidin-1-yl]methyl]-3,5-dimethoxyphenyl)-N,7-dimethyl-8-oxo-3,4-dihydro-1H-2,7-naphthyridine-2-carboxamide formic acid] |
| < 10 | < 10 | COc1cc(-c2cn(C)c(=O)c3c2CCN(C(=O)NCCCCCCCCNc2cccc4c2CN(C2CCC(=O)NC2=O)C4=O)C3)cc(OC)c1CN(C)C (stereo not drawn) [Compound D29, 5-(4-((dimethylamino)methyl)-3,5-dimethoxyphenyl)-N-(8-((2-(2,6-dioxopiperidin-3-yl)-1-oxoisoindolin-4-yl)amino)octyl)-7-methyl-8-oxo-3,4,7,8-tetrahydro-2,7-naphthyridine-2 (1H)-carboxamide formic acid] |
| > 10 | < 10 | CNC(=O)N1CCc2c(-c3cc(OC)c(CN4CCC5(CC4)CN(C(=O)CCCCOc4ccc6c(c4)C(=O)N(C4CCC(=O)NC4=O)C6=O)CCO5)c(OC)c3)cn(C)c(=O)c2C1 (stereo not drawn) [Compound D31, 5-(4-((4-(5-((2-(2,6-dioxopiperidin-3-yl)-1,3-dioxoisoindolin-5-yl)oxy)pentanoyl)-1-oxa-4,9-diazaspiro[5.5]undecan-9-yl)methyl)-3,5-dimethoxyphenyl)-N,7-dimethyl-8-oxo-3,4,7,8-tetrahydro-2,7-naphthyridine-2 (1H)-carboxamide formic acid] |
| > 10 | < 10 | COc1cc(-c2cn(C)c(=O)c3c2CCN(C(=O)NCCCCCCCC(=O)N[C@H](C(=O)N2C[C@H](O)C[C@H]2C(=O)NCc2ccc(-c4scnc4C)cc2)C(C)(C)C)C3)cc(OC)c1CN(C)C [Compound D37, (2S,4R)-1-[(2S)-2-[8-(5-[4-[(dimethylamino)methyl]-3,5-dimethoxyphenyl]-7-methyl-8-oxo-3,4-dihydro-1H-2,7-naphthyridine-2-carbonylamino)octanamido]-3,3-dimethylbutanoyl]-4-hydroxy-N-[[4-(4-methyl-1,3-thiazol-5-yl)phenyl]methyl]pyrrolidine-2-carboxamide formic acid] |

From patent US12384776B2, “Compounds and uses thereof” (Foghorn Therapeutics Inc., priority 2019, dated 2025)
